Measured values as given in patent US20040009194A1, “Methods, and compositions for a therapeutic antigen presenting cell vaccine for treatment of immunodeficiency virus” (priority 2002, published 2004).

Key:
autologous PBL = assay: Proliferation of patient T cells stimulated with inactivated-virus-pulsed autologous DC ([methyl-3H]thymidine incorporation); type: cell-based, human; conditions: indinavir 10 nM (nonantiviral concentration); P<0.001
Text: To mimic the antigen capture by DC in peripheral tissues, immature DC (i.e., competent in antigen capture) generated by culturing patient blood monocytes with GM-CSF and IL-4 for 5 days were pulsed with autologous viral isolates inactivated by 2,2′ dithiodipyridine or aldrithiol-2 (AT-2), which preserves the intact native conformation and fusogenic activity of HIV Env protein. As will be appreciated by those skilled in the art, there are a number of mechanisms suitable to inactivate a virus, and any of these methods can be used so long as the method preserves the intact native conformation and fusogenic activity of HIV Env protein. To model the presentation of antigens in lymphoid tissue, virus-pulsed DC were matured in the presence of TNF-α and IFN-α for an additional 3 days to maximize their T-cell-stimulatory activity. Matured virus-pulsed DC was then used to stimulate autologous PBL at a stimulator/responder ratio of 1:3 in the absence or presence of PI at a nonantiviral concentration (10 nM indinavir). By day 7 of coculture, PBL were restimulated with the same virus-pulsed DC for an additional 7 days. At day 14, proliferation was measured by incubating PBL with virus-pulsed DC at stimulator/responder ratios of 1:3 to 1:100. […] HIV-1 gag-specific CTL activity following stimulation with virus-pulsed autologous DC.

[1] = test system: autologous B-LCL infected by recombinant vaccinia virus containing a gag gene of HIV-1; type: cell-based, human

Structure (SMILES): CC(C)(C)NC(=O)[C@@H]1CN(Cc2cccnc2)CCN1C[C@@H](O)C[C@@H](Cc1ccccc1)C(=O)N[C@H]1c2ccccc2C[C@H]1O [indinavir]
- effect of PI on DC-mediated T-cell proliferation (autologous PBL): significantly enhanced
- effect of indinavir on gag-specific CTL activity [1]: significantly enhanced
